pIC50: −log10 of the molar value. Structures can show the parent of a compound that is named as a salt.
Biological target: T1, HCV polymerase (Hepatitis C virus genotype 1b, UniProt P26663)
T1 construct: a region encoding NS5B (J Virol 1991 March, 65(3), 1105-13, 544 amino acids after deletion of 47 amino acids on the C-terminal); 6xHis (C); made in house; host or cells: Escherichia coli
Experiment: biochemical
Set-up: species or system HCV BK strain
Method in brief: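 Recombinant HCV BK-strain NS5B (C-terminal 47 aa deleted, His6-tagged, E. coli), 0.5 μg/ml, run with 5 μg/ml in vitro-transcribed RNA template (polyU/3′X), ATP/GTP/CTP 50 μM, UTP 2 μM plus [3H]UTP, pH 7.5, 25° C, 90 min. TCA-precipitated RNA counted by scintillation; IC50 from activity with vs without compound.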

T1 sequence (P26663 2420-2963): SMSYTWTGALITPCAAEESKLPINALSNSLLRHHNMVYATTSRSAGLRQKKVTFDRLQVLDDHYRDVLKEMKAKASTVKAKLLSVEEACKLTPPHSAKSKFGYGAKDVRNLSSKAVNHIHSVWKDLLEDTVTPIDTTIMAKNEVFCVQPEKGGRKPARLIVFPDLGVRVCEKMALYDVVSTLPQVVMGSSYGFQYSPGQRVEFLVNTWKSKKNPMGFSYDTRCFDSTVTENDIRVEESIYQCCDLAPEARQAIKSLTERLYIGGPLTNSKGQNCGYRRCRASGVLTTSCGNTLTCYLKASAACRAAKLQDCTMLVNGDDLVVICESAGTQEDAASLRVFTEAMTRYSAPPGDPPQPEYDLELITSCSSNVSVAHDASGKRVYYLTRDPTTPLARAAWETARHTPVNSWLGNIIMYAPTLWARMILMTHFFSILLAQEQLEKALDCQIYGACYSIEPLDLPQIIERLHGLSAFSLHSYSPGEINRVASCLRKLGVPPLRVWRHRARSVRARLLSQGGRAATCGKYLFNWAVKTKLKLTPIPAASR

| SMILES | pIC50 |
| --- | --- |
| Cc1cc(COc2ccc3c(c2)N(CC[N+](C)(C)Cc2cc(C)on2)CCn2c-3c(C3CCCCC3)c3ccc(C(=O)O)cc32)no1 [Example 1-344, N-{2-[10-carboxy-13-cyclohexyl-3-(5-methylisoxazol-3-ylmethoxy)-6,7-dihydro-benzo[5,6][1,4]diazepino[7,1-a]indol-5-yl]ethyl}-N,N-dimethyl-N-(5-methylisoxazol-3-ylmethyl)ammonium chloride monohydrochloride] | > 7.00 |
| CCOc1ccc2c(c1)N(CCN1CCCC(C)C1)CCn1c-2c(C2CCCCC2)c2ccc(C(=O)O)cc21 (stereo not shown) [Example 1-345, 13-cyclohexyl-3-ethoxy-5-[2-(3-methylpiperidin-1-yl)ethyl]-6,7-dihydro-5H-benzo[5,6][1,4]diazepino[7,1-a]indole-10-carboxylic acid dihydrochloride] | > 7.00 |
| CCCc1ccc2c(c1)N(CCN1CCCC(COC)C1)CCn1c-2c(C2CCCCC2)c2ccc(C(=O)O)cc21 (stereo not shown) [Example 1-346, 13-cyclohexyl-5-[2-(3-methoxymethylpiperidin-1-yl)ethyl]-3-propyl-6,7-dihydro-5H-benzo[5,6][1,4]diazepino[7,1-a]indole-10-carboxylic acid dihydrochloride] | > 7.00 |
| CCOc1ccc2c(c1)N(CCN1CCCC(CC)C1)CCn1c-2c(C2CCCCC2)c2ccc(C(=O)O)cc21 (stereo not shown) [Example 1-347, 13-cyclohexyl-3-ethoxy-5-[2-(3-ethylpiperidin-1-yl)ethyl]-6,7-dihydro-5H-benzo[5,6][1,4]diazepino[7,1-a]indole-10-carboxylic acid dihydrochloride] | > 7.00 |
| CCC1CCCN(CCN2CCn3c(c(C4CCCCC4)c4ccc(C(=O)O)cc43)-c3ccc(OCc4ccccc4)cc32)C1 (stereo not shown) [Example 1-348, 3-benzyloxy-13-cyclohexyl-5-[2-(3-ethylpiperidin-1-yl)ethyl]-6,7-dihydro-5H-benzo[5,6][1,4]diazepino[7,1-a]indole-10-carboxylic acid dihydrochloride] | > 7.00 |
| CCOc1ccc2c(c1)N(CCC1CCCN(C(C)C)C1)CCn1c-2c(C2CCCCC2)c2ccc(C(=O)O)cc21 (stereo not shown) [Example 1-349, 13-cyclohexyl-3-ethoxy-5-[2-(1-isopropylpiperidin-3-yl)ethyl]-6,7-dihydro-5H-benzo[5,6][1,4]diazepino[7,1-a]indole-10-carboxylic acid dihydrochloride] | > 7.00 |
| CCc1ccc2c(c1)N(CCN1CCCC(CC)C1)CCn1c-2c(C2CCCCC2)c2ccc(C(=O)O)cc21 (stereo not shown) [Example 1-350, 13-cyclohexyl-3-ethyl-5-[2-(3-ethylpiperidin-1-yl)ethyl]-6,7-dihydro-5H-benzo[5,6][1,4]diazepino[7,1-a]indole-10-carboxylic acid dihydrochloride] | > 7.00 |
| CC(C)C1CCCN(CCN2CCn3c(c(C4CCCCC4)c4ccc(C(=O)O)cc43)-c3ccc(Cl)cc32)C1 (stereo not shown) [Example 1-351, 3-chloro-13-cyclohexyl-5-[2-(3-isopropylpiperidin-1-yl)ethyl]-6,7-dihydro-5H-benzo[5,6][1,4]diazepino[7,1-a]indole-10-carboxylic acid dihydrochloride] | > 7.00 |
| COCC1CCCN(CCCN2CCn3c(c(C4CCCCC4)c4ccc(C(=O)O)cc43)-c3ccc(Cl)cc32)C1 (stereo not shown) [Example 1-352, 3-chloro-13-cyclohexyl-5-[3-(3-methoxymethylpiperidin-1-yl)propyl]-6,7-dihydro-5H-benzo[5,6][1,4]diazepino[7,1-a]indole-10-carboxylic acid monohydrochloride] | > 7.00 |
| CCC1CCCCN1CCCN1CCn2c(c(C3CCCCC3)c3ccc(C(=O)O)cc32)-c2ccc(Cl)cc21 (stereo not shown) [Example 1-353, 3-chloro-13-cyclohexyl-5-[3-(2-ethylpiperidin-1-yl)propyl]-6,7-dihydro-5H-benzo[5,6][1,4]diazepino[7,1-a]indole-10-carboxylic acid dihydrochloride] | > 7.00 |
| CCCc1ccc2c(c1)N(CCC1CCCN(C(C)C)C1)CCn1c-2c(C2CCCCC2)c2ccc(C(=O)O)cc21 (stereo not shown) [Example 1-354, 13-cyclohexyl-5-[2-(1-isopropylpiperidin-3-yl)ethyl]-3-propyl-6,7-dihydro-5H-benzo[5,6][1,4]diazepino[7,1-a]indole-10-carboxylic acid dihydrochloride] | > 7.00 |
| COCC1CCCCN1CCCN1CCn2c(c(C3CCCCC3)c3ccc(C(=O)O)cc32)-c2ccc(Cl)cc21 (stereo not shown) [Example 1-355, 3-chloro-13-cyclohexyl-5-[3-(2-methoxymethylpiperidin-1-yl)propyl]-6,7-dihydro-5H-benzo[5,6][1,4]diazepino[7,1-a]indole-10-carboxylic acid dihydrochloride] | > 7.00 |
| CCCc1ccc2c(c1)N(CCN1CCCC(C)C1)CCn1c-2c(C2CCCCC2)c2ccc(C(=O)O)cc21 (stereo not shown) [Example 1-356, 13-cyclohexyl-5-[2-(3-methylpiperidin-1-yl)ethyl]-3-propyl-6,7-dihydro-5H-benzo[5,6][1,4]diazepino[7,1-a]indole-10-carboxylic acid dihydrochloride] | > 7.00 |
| CCCc1ccc2c(c1)N(CCN1CCCC(CC)C1)CCn1c-2c(C2CCCCC2)c2ccc(C(=O)O)cc21 (stereo not shown) [Example 1-357, 13-cyclohexyl-5-[2-(3-ethylpiperidin-1-yl)ethyl]-3-propyl-6,7-dihydro-5H-benzo[5,6][1,4]diazepino[7,1-a]indole-10-carboxylic acid dihydrochloride] | > 7.00 |
| COCC1CCCN(CCN2CCn3c(c(C4CCCCC4)c4ccc(C(=O)O)cc43)-c3ccc(OCc4ccccc4)cc32)C1 (stereo not shown) [Example 1-358, 3-benzyloxy-13-cyclohexyl-5-[2-(3-methoxymethylpiperidin-1-yl)ethyl]-6,7-dihydro-5H-benzo[5,6][1,4]diazepino[7,1-a]indole-10-carboxylic acid dihydrochloride] | > 7.00 |
| CC(C)c1ccc2c(c1)N(CCN1CCCC1)CCn1c-2c(C2CCCCC2)c2ccc(C(=O)O)cc21 [Example 1-359, 13-cyclohexyl-3-isopropyl-5-[2-(pyrrolidin-1-yl)ethyl]-6,7-dihydro-5H-benzo[5,6][1,4]diazepino[7,1-a]indole-10-carboxylic acid monohydrochloride] | > 7.00 |
| CCc1ccc2c(c1)N(CCN1CCCC1)CCn1c-2c(C2CCCCC2)c2ccc(C(=O)O)cc21 [Example 1-360, 13-cyclohexyl-3-ethyl-5-[2-(pyrrolidin-1-yl)ethyl]-6,7-dihydro-5H-benzo[5,6][1,4]diazepino[7,1-a]indole-10-carboxylic acid monohydrochloride] | > 7.00 |
| CC1CCCN(CCN2CCn3c(c(C4CCCCC4)c4ccc(C(=O)O)cc43)-c3ccc(OCc4ccccc4)cc32)C1 (stereo not shown) [Example 1-361, 3-benzyloxy-13-cyclohexyl-5-[2-(3-methylpiperidin-1-yl)ethyl]-6,7-dihydro-5H-benzo[5,6][1,4]diazepino[7,1-a]indole-10-carboxylic acid dihydrochloride] | > 7.00 |
| CC(C)N1CCCC(CCN2CCn3c(c(C4CCCCC4)c4ccc(C(=O)O)cc43)-c3ccc(OCc4ccccc4)cc32)C1 (stereo not shown) [Example 1-362, 3-benzyloxy-13-cyclohexyl-5-[2-(1-isopropylpiperidin-3-yl)ethyl]-6,7-dihydro-5H-benzo[5,6][1,4]diazepino[7,1-a]indole-10-carboxylic acid dihydrochloride] | > 7.00 |
| Cc1cc(COc2ccc3c(c2)N(CCN2CCCCC2)CCn2c-3c(C3CCCCC3)c3ccc(C(=O)O)cc32)no1 [Example 1-363, 13-cyclohexyl-3-(5-methylisoxazol-3-ylmethoxy)-5-[2-(piperidin-1-yl)ethyl]-6,7-dihydro-5H-benzo[5,6][1,4]diazepino[7,1-a]indole-10-carboxylic acid dihydrochloride] | > 7.00 |
| CC(C)C1CCCN(CCN2CCn3c(c(C4CCCCC4)c4ccc(C(=O)O)cc43)-c3ccccc32)C1 (stereo not shown) [Example 1-364, 13-cyclohexyl-5-[2-(3-isopropylpiperidin-1-yl)ethyl]-6,7-dihydro-5H-benzo[5,6][1,4]diazepino[7,1-a]indole-10-carboxylic acid dihydrochloride] | > 7.00 |
| Cc1ccc2c(c1)N(CCN1CCCC(C(C)C)C1)CCn1c-2c(C2CCCCC2)c2ccc(C(=O)O)cc21 (stereo not shown) [Example 1-365, 13-cyclohexyl-5-[2-(3-isopropylpiperidin-1-yl)ethyl]-3-methyl-6,7-dihydro-5H-benzo[5,6][1,4]diazepino[7,1-a]indole-10-carboxylic acid dihydrochloride] | > 7.00 |
| CCc1ccc2c(c1)N(CCN1CCCC(COC)C1)CCn1c-2c(C2CCCCC2)c2ccc(C(=O)O)cc21 (stereo not shown) [Example 1-366, 13-cyclohexyl-3-ethyl-5-[2-(3-methoxymethylpiperidin-1-yl)ethyl]-6,7-dihydro-5H-benzo[5,6][1,4]diazepino[7,1-a]indole-10-carboxylic acid dihydrochloride] | > 7.00 |
| COCC1CCCN(CCN2CCn3c(c(C4CCCCC4)c4ccc(C(=O)O)cc43)-c3ccc(C(C)C)cc32)C1 (stereo not shown) [Example 1-367, 13-cyclohexyl-3-isopropyl-5-[2-(3-methoxymethylpiperidin-1-yl)ethyl]-6,7-dihydro-5H-benzo[5,6][1,4]diazepino[7,1-a]indole-10-carboxylic acid dihydrochloride] | > 7.00 |
| CC1CCCN1CCCN1CCn2c(c(C3CCCCC3)c3ccc(C(=O)O)cc32)-c2ccc(Cl)cc21 (stereo not shown) [Example 1-368, 3-chloro-13-cyclohexyl-5-[3-(2-methylpyrrolidin-1-yl)propyl]-6,7-dihydro-5H-benzo[5,6][1,4]diazepino[7,1-a]indole-10-carboxylic acid] | > 7.00 |
